From ChEMBL document CHEMBL5303573, “Mapping human microbiome drug metabolism by gut bacteria and their genes” (Nature, 2019)

Tests used:
[1] = segatella copri, 12 h, 2 µM
Description: The drug is tested on Prevotella copri strain: DSM18205 for biotransformation. The drug concentrations were measured before and after a 12-h incubation by liquid-chromatography-coupled mass spectrometry (LC–MS)

[2] = The drug is tested on Ruminococcus lactaris strain: ATCC29176 for biotransformation. The drug concentrations were measured before and after a 12-h incubation by liquid-chromatography-coupled mass spectrometry (LC–MS); conditions: 2 µM
[3] = The drug is tested on Bacteroides pectinophilus strain: ATCC43243 for biotransformation. The drug concentrations were measured before and after a 12-h incubation by liquid-chromatography-coupled mass spectrometry (LC–MS); conditions: 2 µM
[4] = enterocloster bolteae, 12 h, 2 µM
Description: The drug is tested on Clostridium bolteae strain: ATCCBAA-613 for biotransformation. The drug concentrations were measured before and after a 12-h incubation by liquid-chromatography-coupled mass spectrometry (LC–MS)

[5] = The drug is tested on Bacteroides fragilis strain: HMW610 for biotransformation. The drug concentrations were measured before and after a 12-h incubation by liquid-chromatography-coupled mass spectrometry (LC–MS); conditions: 2 µM
[6] = The drug is tested on Enterococcus faecalis strain: V583 for biotransformation. The drug concentrations were measured before and after a 12-h incubation by liquid-chromatography-coupled mass spectrometry (LC–MS); conditions: 2 µM
[7] = The drug is tested on Bacteroides cellulosilyticus strain: DSM14838 for biotransformation. The drug concentrations were measured before and after a 12-h incubation by liquid-chromatography-coupled mass spectrometry (LC–MS); conditions: 2 µM
[8] = The drug is tested on Clostridium scindens strain: ATCC35704 for biotransformation. The drug concentrations were measured before and after a 12-h incubation by liquid-chromatography-coupled mass spectrometry (LC–MS); conditions: 2 µM
[9] = The drug is tested on Subdoligranulum variabile strain: DSM15176 for biotransformation. The drug concentrations were measured before and after a 12-h incubation by liquid-chromatography-coupled mass spectrometry (LC–MS); conditions: 2 µM
[10] = The drug is tested on Blautia hansenii strain: DSM20583 for biotransformation. The drug concentrations were measured before and after a 12-h incubation by liquid-chromatography-coupled mass spectrometry (LC–MS); conditions: 2 µM
[11] = The drug is tested on Odoribacter splanchnicus strain: fecal isolate for biotransformation. The drug concentrations were measured before and after a 12-h incubation by liquid-chromatography-coupled mass spectrometry (LC–MS); conditions: 2 µM
[12] = The drug is tested on Eubacterium ventriosum strain: ATCC27560 for biotransformation. The drug concentrations were measured before and after a 12-h incubation by liquid-chromatography-coupled mass spectrometry (LC–MS); assay type: ADME; design: dose 2 uM, timepoint 0 vs 12 hours; conditions: 2 µM
[13] = The drug is tested on Collinsella intestinalis strain: DSM13280 for biotransformation. The drug concentrations were measured before and after a 12-h incubation by liquid-chromatography-coupled mass spectrometry (LC–MS); conditions: 2 µM
[14] = The drug is tested on Eubacterium rectale strain: ATCC33656 for biotransformation. The drug concentrations were measured before and after a 12-h incubation by liquid-chromatography-coupled mass spectrometry (LC–MS); conditions: agathobacter rectalis, 2 µM
[15] = The drug is tested on Coprococcus comes strain: ATCC27758 for biotransformation. The drug concentrations were measured before and after a 12-h incubation by liquid-chromatography-coupled mass spectrometry (LC–MS); assay type: ADME; design: dose 2 uM, timepoint 0 vs 12 hours; conditions: 2 µM
[16] = The drug is tested on Escherichia coli strain: BW25113 for biotransformation. The drug concentrations were measured before and after a 12-h incubation by liquid-chromatography-coupled mass spectrometry (LC–MS); conditions: 2 µM
[17] = The drug is tested on Collinsella aerofaciens strain: ATCC25986 for biotransformation. The drug concentrations were measured before and after a 12-h incubation by liquid-chromatography-coupled mass spectrometry (LC–MS); conditions: 2 µM
[18] = The drug is tested on Bacteroides dorei strain: DSM17855 for biotransformation. The drug concentrations were measured before and after a 12-h incubation by liquid-chromatography-coupled mass spectrometry (LC–MS); conditions: phocaeicola dorei, 2 µM
[19] = The drug is tested on Bacteroides fragilis strain: ATCC43859 for biotransformation. The drug concentrations were measured before and after a 12-h incubation by liquid-chromatography-coupled mass spectrometry (LC–MS); conditions: 2 µM
[20] = The drug is tested on Eubacterium hallii strain: DSM3353 for biotransformation. The drug concentrations were measured before and after a 12-h incubation by liquid-chromatography-coupled mass spectrometry (LC–MS); conditions: anaerobutyricum hallii, 2 µM

Compound | Bacterial Biotransformation [1] | Bacterial Biotransformation [2] | Bacterial Biotransformation [3] | Bacterial Biotransformation [4] | Bacterial Biotransformation [5] | Bacterial Biotransformation [6] | Bacterial Biotransformation [7] | Bacterial Biotransformation [8] | Bacterial Biotransformation [9] | Bacterial Biotransformation [10] | Bacterial Biotransformation [11] | Bacterial Biotransformation [12] | Bacterial Biotransformation [13] | Bacterial Biotransformation [14] | Bacterial Biotransformation [15] | Bacterial Biotransformation [16] | Bacterial Biotransformation [17] | Bacterial Biotransformation [18] | Bacterial Biotransformation [19] | Bacterial Biotransformation [20]
Cc1nc(Nc2ncc(C(=O)Nc3c(C)cccc3Cl)s2)cc(N2CCN(CCO)CC2)n1.O [DASATINIB] | Compound metabolized | Compound NOT metabolized | Compound NOT metabolized | Compound metabolized | Compound metabolized | Compound NOT metabolized | Compound NOT metabolized | Compound metabolized | Compound metabolized | Compound metabolized | Compound NOT metabolized | Compound NOT metabolized | Compound NOT metabolized | Compound NOT metabolized | Compound NOT metabolized | Compound NOT metabolized | Compound NOT metabolized | Compound metabolized | – | –
Nc1nc(N)nc(-c2cc(Cl)ccc2Cl)n1.O=C(O)/C=C\C(=O)O [IRSOGLADINE MALEATE] | Compound NOT metabolized | Compound NOT metabolized | Compound NOT metabolized | Compound NOT metabolized | Compound NOT metabolized | Compound NOT metabolized | Compound NOT metabolized | Compound NOT metabolized | Compound NOT metabolized | Compound NOT metabolized | Compound NOT metabolized | Compound NOT metabolized | Compound NOT metabolized | – | Compound NOT metabolized | – | Compound NOT metabolized | Compound metabolized | Compound NOT metabolized | Compound NOT metabolized
COc1ccccc1OCC(O)COC(N)=O (stereo unspecified) [METHOCARBAMOL] | Compound NOT metabolized | – | – | Compound NOT metabolized | Compound NOT metabolized | Compound NOT metabolized | Compound NOT metabolized | – | Compound NOT metabolized | Compound NOT metabolized | Compound NOT metabolized | Compound NOT metabolized | Compound NOT metabolized | Compound NOT metabolized | Compound NOT metabolized | – | Compound NOT metabolized | Compound NOT metabolized | Compound NOT metabolized | Compound NOT metabolized
Cc1ccnc2c1NC(=O)c1cccnc1N2C1CC1 [NEVIRAPINE] | Compound NOT metabolized | Compound NOT metabolized | Compound NOT metabolized | Compound NOT metabolized | Compound NOT metabolized | Compound NOT metabolized | Compound NOT metabolized | Compound NOT metabolized | Compound NOT metabolized | Compound metabolized | – | Compound NOT metabolized | Compound NOT metabolized | – | Compound NOT metabolized | – | Compound NOT metabolized | Compound NOT metabolized | Compound NOT metabolized | Compound NOT metabolized
CO[C@]12C[C@@H](COC(=O)c3cncc(Br)c3)CN(C)[C@@H]1Cc1cn(C)c3cccc2c13 [NICERGOLINE] | Compound NOT metabolized | Compound NOT metabolized | Compound NOT metabolized | – | – | Compound NOT metabolized | Compound metabolized | Compound NOT metabolized | Compound NOT metabolized | Compound NOT metabolized | Compound NOT metabolized | Compound NOT metabolized | Compound NOT metabolized | – | – | Compound NOT metabolized | – | Compound metabolized | Compound NOT metabolized | Compound NOT metabolized
Cc1ccccc1C(OCCN(C)C)c1ccccc1.O=C(O)CC(O)(CC(=O)O)C(=O)O (stereo unspecified) [ORPHENADRINE CITRATE] | Compound NOT metabolized | Compound NOT metabolized | Compound NOT metabolized | – | Compound NOT metabolized | Compound NOT metabolized | Compound NOT metabolized | Compound NOT metabolized | Compound NOT metabolized | Compound metabolized | Compound NOT metabolized | – | Compound NOT metabolized | – | Compound NOT metabolized | – | Compound NOT metabolized | Compound NOT metabolized | Compound NOT metabolized | Compound NOT metabolized
O=C(O)CCc1nc(-c2ccccc2)c(-c2ccccc2)o1 [OXAPROZIN] | Compound NOT metabolized | Compound NOT metabolized | Compound NOT metabolized | Compound NOT metabolized | Compound metabolized | Compound NOT metabolized | Compound NOT metabolized | Compound NOT metabolized | Compound NOT metabolized | Compound metabolized | Compound metabolized | Compound NOT metabolized | Compound NOT metabolized | Compound NOT metabolized | Compound NOT metabolized | – | Compound NOT metabolized | Compound metabolized | Compound metabolized | Compound NOT metabolized
NC(=O)N1c2ccccc2CC(=O)c2ccccc21 [OXCARBAZEPINE] | Compound NOT metabolized | Compound metabolized | Compound metabolized | Compound NOT metabolized | Compound NOT metabolized | Compound NOT metabolized | Compound NOT metabolized | Compound metabolized | Compound NOT metabolized | Compound NOT metabolized | Compound metabolized | Compound metabolized | Compound NOT metabolized | Compound metabolized | Compound NOT metabolized | Compound metabolized | Compound NOT metabolized | Compound metabolized | – | Compound NOT metabolized
CN(C(=O)CN(CCO)CC(=O)N(C)C(C)(C)Cc1ccccc1)C(C)(C)Cc1ccccc1 [OXETHAZAINE] | – | Compound NOT metabolized | – | – | Compound NOT metabolized | Compound NOT metabolized | Compound NOT metabolized | Compound NOT metabolized | Compound NOT metabolized | Compound NOT metabolized | Compound NOT metabolized | Compound NOT metabolized | Compound NOT metabolized | – | – | – | Compound NOT metabolized | – | Compound NOT metabolized | Compound NOT metabolized
